Patent US8629084B2, “Iodine-phenyl-substituted cyclic cetoenols” (Bayer CropScience AG, priority 2004, dated 2014)

Experiments:
[1] = logP determination by HPLC on reversed-phase column (C18), EEC Directive 79/831 Annex V.A8; type: physicochemical; conditions: for log P: value in preparation example text
Method: • The logP values given in the Tables and Preparation Examples above are determined in accordance with EEC Directive 79/831 Annex V.A8 by HPLC (High Performance Liquid Chromatography) on a reversed-phase column (C18). Temperature: 43° C.
The determination is carried out in the acidic range at pH 2.3 using the mobile phases 0.1% aqueous phosphoric acid and acetonitrile; linear gradient from 10% acetonitrile to 95% acetonitrile. […]
Calibration is carried out using unbranched alkan-2-ones (having 3 to 16 carbon atoms) with known logP values (determination of the logP values by the retention times using linear interpolation between two successive alkanones).

[2] = tested on: cereal; experiment: Herbicidal post-emergence action with use of safeners (Example G): container trials with cereal in a greenhouse, mefenpyr 1 day prior to herbicide application; type: in vivo; conditions: without safener
Method: Herbicidal Post-Emergence Action
Seeds of monocotyledonous and dicotyledonous weed and crop plants are placed into sandy loam in wood fiber pots or in plastic pots, covered with soil and cultivated in a greenhouse, during the vegetation period also outdoors outside of the greenhouse, under good growth conditions. Two to three weeks after sowing, the test plants are treated at the one- to three-leaf stage. The test compounds, formulated as wettable powders (WP) or liquid (EC), are, in various dosages at a water application rate of 300 l/ha (converted), with wetting agent (0.2 to 0.3%) added, sprayed onto the plants and the surface of the soil. […]
If it is additionally to be tested as to whether safeners can improve the plant compatibility of test substances in the case of crop plants, the following options are used for applying the safener: • seeds of the crop plants are, before sowing, dressed with the safener substance (the amount of safener stated in percent, based on the weight of the seed) • before the application of the test substances, the crop plants are sprayed with the safener at a certain application rate per hectare (usually 1 day before the application of the test substances) • the safener is applied together with the test substance as a tank mix (the amount of safener is stated in g/ha or as a ratio, based on the herbicide).
By comparing the effect of test substances on crop plants without or with safener treatment, it is possible to assess the effect of the safener substance.
Container Trials with Cereal in a Greenhouse
Mefenpyr 1 day prior to herbicide application

[3] = tested on: brown plant hopper (Nilaparvata lugens); experiment: Nilaparvata lugens test (hydroponic treatment); type: in vivo; conditions: concentration of 20 ppm
Method: Nilaparvata Lugens Test (Hydroponic Treatment)
Solvents: 78 parts by weight of acetone • • 1.5 parts by weight of dimethylformamide
Emulsifier: 0.5 part by weight of alkylaryl polyglycol ether
To produce a suitable preparation of active compound, 1 part by weight of active compound is mixed with the stated amounts of solvents and emulsifier, and the concentrate is diluted with emulsifier-containing water to the desired concentration.
The active compound preparation is pipetted into water. The stated concentration refers to the amount of active compound per volume unit of water (mg/l=ppm). After the desired period of time, the water is infected with the brown plant hopper (Nilaparvata lugens).
After the desired period of time, the effect in % is determined. 100% means that all plant hoppers have been killed; 0% means that none of the plant hoppers have been killed.

[4] = compounds of formula (I-2-b), HPLC reversed-phase C18, 43° C., acidic range pH 2.3, 0.1% aqueous phosphoric acid/acetonitrile
[5] = summer wheat, 25 g of a.i./ha, 10 days after application
[6] = summer wheat, 50 g of a.i./ha, 10 days after application
[7] = summer wheat, 100 g of a.i./ha, 10 days after application
[8] = HPLC, reversed-phase C18, 43° C., acidic range pH 2.3 (0.1% aqueous phosphoric acid/acetonitrile)
[9] = compounds of formula (I-2-a), HPLC reversed-phase C18, 43° C., acidic range pH 2.3, 0.1% aqueous phosphoric acid/acetonitrile
[10] = HPLC, reversed-phase C18, 43° C., acidic range pH 2.3 (0.1% aqueous phosphoric acid/acetonitrile), table of formula (I-2-c)

`COC1CCC2(CC1)OC(=O)C(c1cc(C)ccc1I)=C2OC(=O)C(C)(C)C` (single isomer, unassigned) [Example I-2-b-6] gave a logP [1, 4] of 4.57.
`COC1CCC2(CC1)OC(=O)C(c1cc(C)ccc1I)=C2OC(=O)C(C)(C)C` (single isomer, unassigned) [Example I-2-b-7] gave a logP [1, 4] of 4.24.
Molecule `COC1CCC2(CC1)OC(=O)C(c1c(C)cc(I)cc1C)=C2OC(=O)C(C)(C)C` (single isomer, unassigned) [Example I-2-b-12] has a logP [1, 4] of 5.21.
In the case of `COC1CCC2(CC1)OC(=O)C(c1c(C)cc(I)cc1C)=C2OC(=O)C(C)(C)C` (single isomer, unassigned) [Example I-2-b-13], the logP [1, 4] is reported as 4.9.
With `Cc1cc(C)c(C2=C(O)C3(CCC(C)CC3)NC2=O)c(I)c1` (stereo not shown) [Example I-1-a-3] the “Summer wheat observed (%)” value ([2]; summer wheat, 12.5 g of a.i./ha, 10 days after application) was 10%, the “Summer wheat observed (%)” value [2, 5] was 20% and the “Summer wheat observed (%)” value [2, 6] was 30%. The “Summer wheat observed (%)” value [2, 7] was 40%.
For `CCOC(=O)OC1=C(c2c(C)cc(I)cc2CC)C(=O)NC12CCC(OC)CC2` (stereo not shown) [Example I-1-c-1], the “Summer wheat observed (%)” value ([2]; the 20th table, summer wheat, 12.5 g of a.i./ha, 10 days after application) was 50%.
In the case of `CC1(C)OC(=O)C(c2ccccc2I)=C1O` [Example I-2-a-1], the “log P” value [1, 8] is reported as 1.80.
With `COC1CCC2(CC1)OC(=O)C(c1ccccc1I)=C2O` (stereo not shown) [Example I-2-a-2] the “efficacy (plant hoppers killed)” value [3] was no less than 80% and the logP [1, 9] was 1.92.
With `COC1CCC2(CC1)OC(=O)C(c1cc(C)ccc1I)=C2O` (stereo not shown) [Example I-2-a-4] the logP [1, 9] was 2.19.
In the case of `CCc1cc(I)cc(C)c1C1=C(O)C2(CCOCC2)OC1=O` [Example I-2-a-5], the logP [1, 9] is reported as 2.63.
In the case of `CCc1cc(I)cc(C)c1C1=C(O)C2(CCC(OC)CC2)OC1=O` (stereo not shown) [Example I-2-a-6], the logP [1, 9] is reported as 2.92.
`COC1CCC2(CC1)OC(=O)C(c1c(C)cc(I)cc1C)=C2O` (stereo not shown) [Example I-2-a-9] showed a logP [1, 9] of 2.94.
With `CC(C)C(=O)OC1=C(c2ccccc2I)C(=O)OC1(C)C` [Example I-2-b-1] the “log P” value [1, 8] was 3.53.
In the case of `COC1CCC2(CC1)OC(=O)C(c1ccccc1I)=C2OC(=O)C(C)(C)C` (stereo not shown) [Example I-2-b-2], the logP [1, 4] is reported as 3.95.
`COC1CCC2(CC1)OC(=O)C(c1ccccc1I)=C2OC(=O)C(C)C` (stereo not shown) [Example I-2-b-3] showed a logP [1, 4] of 3.6.
In the case of `CC(C)(C)C(=O)OC1=C(c2ccccc2I)C(=O)OC1(C)C` [Example I-2-b-4], the logP [1, 4] is reported as 3.87.
`Cc1ccc(I)c(C2=C(OC(=O)C(C)(C)C)C3(CCCC3)OC2=O)c1` [Example I-2-b-5] gave a logP [1, 4] of 4.68.
With `CCc1cc(I)cc(C)c1C1=C(OC(=O)C(C)C)C2(CCOCC2)OC1=O` [Example I-2-b-9] the logP [1, 4] was 4.42.
With `CCc1cc(I)cc(C)c1C1=C(OC(=O)C(C)C)C2(CCC(OC)CC2)OC1=O` (stereo not shown) [Example I-2-b-10] the “Summer wheat observed (%)” value [2, 5] was 15%, the “Summer wheat observed (%)” value ([2]; summer wheat, 25 g of a.i./ha, 28 days after application) was 25% and the “Summer wheat observed (%)” value [2, 6] was 30%. For the same molecule, the “Summer wheat observed (%)” value ([2]; summer wheat, 50 g of a.i./ha, 28 days after application) was 40%, the “Summer wheat observed (%)” value [2, 7] was 50% and the “Summer wheat observed (%)” value ([2]; summer wheat, 100 g of a.i./ha, 28 days after application) was 50%. The “Summer wheat observed (%)” value ([2]; summer wheat, 200 g of a.i./ha, 10 days after application) was 70%, the “Summer wheat observed (%)” value ([2]; summer wheat, 200 g of a.i./ha, 28 days after application) was 75% and the “Summer wheat observed (%)” value ([2]; the 21st table second column (also headed Summer wheat), 25 g of a.i./ha, 10 days after application) was 60%. The “Summer wheat observed (%)” value ([2]; the 21st table second column (also headed Summer wheat), 50 g of a.i./ha, 10 days after application) was 65% and the logP [1, 4] was 4.79.
In the case of `Cc1cc(I)cc(C)c1C1=C(OC(=O)C(C)(C)C)C2(CCCC2)OC1=O` [Example I-2-b-11], the logP [1, 4] is reported as 5.26.
For `CC(C)OC(=O)OC1=C(c2ccccc2I)C(=O)OC1(C)C` [Example I-2-c-1], the “log P” value [1, 8] was 3.47.
For `Cc1ccc(I)c(C2=C(O)C3(CCCC3)OC2=O)c1` [I-2-a-3], the logP [1, 9] was 2.51.
Molecule `CCc1cc(I)cc(C)c1C1=C(O)C(C)(C)OC1=O` [I-2-a-7] has a logP [1, 9] of 2.81.
Molecule `CCc1cc(I)cc(C)c1C1=C(O)C2(CCCC2)OC1=O` [I-2-a-8] has a logP [1, 9] of 3.00.
`CCc1cc(I)cc(C)c1C1=C(OC(=O)C(C)C)C(C)(C)OC1=O` [I-2-b-8] showed a logP [1, 4] of 4.72.
`COC1CCC2(CC1)OC(=O)C(c1ccccc1I)=C2OC(=O)OC(C)C` (stereo not shown) [I-2-c-2] showed a logP [1, 10] of 3.54.
Molecule `CCc1cc(I)cc(C)c1C1=C(OC(=O)OC(C)C)C(C)(C)OC1=O` [I-2-c-3] has a logP [1, 10] of 4.66.
Molecule `CCc1cc(I)cc(C)c1C1=C(OC(=O)OC(C)C)C2(CCC(OC)CC2)OC1=O` (stereo not shown) [I-2-c-4] has a logP [1, 10] of 4.77.
For `CCc1cc(I)cc(C)c1C1=C(OC(=O)OC(C)C)C2(CCOCC2)OC1=O` [I-2-c-5], the logP [1, 10] was 4.41.
